Assay results from ChEMBL document CHEMBL3045010, “Radical scavenging capacities of some thiazolylthiazolidine-2,4-dione derivatives” (Med Chem Res, 2009).

Legend:
Format in all cases: functional
[1] = system: Radical scavenging activity; assay: Antioxidant activity against assessed as DPPH radical scavenging activity at 10 '-4 M after 30 min by spectrophotometry relative to control
[2] = system: Radical scavenging activity; assay: Antioxidant activity against assessed as DPPH radical scavenging activity at 10 '-3 M after 30 min by spectrophotometry relative to control
[3] = Antioxidant activity against assessed as superoxide scavenging activity measuring reduction of cytochrome C at 10 '-4 M by spectrophotometry relative to control; parameters: scale not given: the % may be the effect or the level left
[4] = Antioxidant activity against assessed as superoxide scavenging activity measuring reduction of cytochrome C at 10 '-3 M by spectrophotometry relative to control; parameters: scale not given: the % may be the effect or the level left
[5] = system: Radical scavenging activity; assay: Antioxidant activity against assessed as DPPH radical scavenging activity at 2 x 10 '-4 M after 30 min by spectrophotometry relative to control
[6] = system: Radical scavenging activity; assay: Antioxidant activity against assessed as DPPH radical scavenging activity at 1.25 x 10 '-4 M after 30 min by spectrophotometry relative to control

| Compound | Activity [1] [%] | Activity [2] [%] | Activity [3] [%] | Activity [4] [%] | Activity [5] [%] | Activity [6] [%] |
| --- | --- | --- | --- | --- | --- | --- |
| O=C1S/C(=C\c2sc(Cl)nc2Cl)C(=O)N1Cc1ccc(F)cc1 | 28 | 11 | 129 | 73 | – | – |
| O=C1S/C(=C\c2sc(Cl)nc2Cl)C(=O)N1Cc1ccccc1 | 47 | 12 | 352 | 154 | – | – |
| O=C1S/C(=C\c2sc(Cl)nc2Cl)C(=O)N1Cc1ccc(Br)cc1 | 28 | 9 | 127 | 124 | – | – |
| O=C1S/C(=C\c2sc(SCc3ccccc3)nc2Cl)C(=O)N1Cc1ccc(Cl)cc1Cl | 58 | 20 | 101 | 16 | – | – |
| O=C1S/C(=C\c2sc(SCc3ccccc3)nc2Cl)C(=O)N1Cc1ccc(F)cc1 | 67 | 21 | 98 | 52 | – | – |
| O=C1S/C(=C\c2sc(SCc3ccccc3)nc2Cl)C(=O)N1Cc1ccccc1 | 77 | 26 | 86 | 50 | – | – |
| O=C1S/C(=C\c2sc(Cl)nc2Cl)C(=O)N1Cc1ccc(Cl)cc1Cl | 12 | 9 | 110 | 99 | – | – |
| O=C1S/C(=C\c2sc(Cl)nc2Cl)C(=O)N1Cc1ccc(Cl)cc1 | 73 | 57 | 32 | 9 | – | – |
| O=C1S/C(=C\c2sc(Cl)nc2Cl)C(=O)N1Cc1ccc([N+](=O)[O-])cc1 | 52 | 9 | 114 | 339 | – | – |
| O=C1S/C(=C\c2sc(SCc3ccccc3)nc2Cl)C(=O)N1Cc1ccc(Cl)cc1 | 72 | 20 | 91 | 31 | – | – |
| Cc1cc(C(C)(C)C)c(O)c(C(C)(C)C)c1 | – | 17 | – | – | 37 | 52 |
| O=C1S/C(=C\c2sc(SCc3ccccc3)nc2Cl)C(=O)N1Cc1ccc(Br)cc1 | 74 | 19 | 88 | 35 | – | – |
| O=C1S/C(=C\c2sc(SCc3ccccc3)nc2Cl)C(=O)N1Cc1ccc([N+](=O)[O-])cc1 | 43 | 14 | 96 | 11 | – | – |
